The source of these data is US4968696A, “N,N'-bis-L-amino acid-L-cystine-peptide containing amino acid preparations for oral parenteral nutrition” (Pfrimmer + Co. Pharmazeutische Werke Erlangen GmbH + co. KG, priority 1986, dated 1990).

By half-life is commonly meant how long it takes for the measured level to halve.

Molecules are shown by their SMILES. Where two headings read alike, the source gives them in different places. Where a SMILES comes first, the peptide text is derived from it. Bridges are numbered along the chain shown (N, C = ends). Roman numbers before positions name the chains, in order.

Data set [1] in a line: Solubility in water. It counts as physicochemical.
Data set [2] in a line: Sterilization tests (heat sterilization of aqueous peptide solutions, analysed by capillary isotachophoresis and HPLC). It counts as physicochemical. Particulars: heat sterilization (121° C.). Here is the method:
Starting from a stock solution of the tripeptide of the invention so obtained (2 mmol/1 in tris-buffer) solutions having pH-values of 5.5, 6.5, 7.5 and 8.5 were prepared by addition of 0.1 N HCL or KOH, respectively. Thereafter 0.1 ml each of these solutions were filled into ampoules purified with chromosulfuric acid, met sealed under vacuum and sterilized over 8, 12, 15 or 30 min, respectively.
Further respective solution of the cystinyl-bis-alanine-tripeptide were prepared and treated analogeously.
The stock solutions as well as the sterilized samples were analysized by means of capillary-isotachophoreses and HPLC. […] Therefore, said tripeptides are not only suitable for oral preparations, but also and in particular for the preparation of parenteral infusion solutions.

A short description of data set [3]: In vivo utilization: single injection via vena cava catheter, plasma peptide/amino acid concentrations by RP-HPLC after DANSYL derivatization. The arrangement: species or system male Wistar-rats. Particulars: for tripeptide concentration in plasma: 20 μmol/100 g bw. Here is the method:
For physiological investigation of the in vivo utilization of bis-amino acid cystine-peptides bis-glycyl-L-cystine and bis-L-alanyl-L-cystine were selected as examples and injected into male Wistar-rats in the form of a peptide single injection (50 μmole/100 g bw and 20 μmole/100 g bw respectively, injection volume 0.5-1 ml), by means of a vena cava-catheter within 5 s. The withdrawal of blood (1 ml in herparinized syringes) was 30, 60, 120, 180 and 300 s after application of the peptides. The plasma obtained by centrifugation was subsequently treated with 30% SSA (ratio of sample to SSA 10:1) for precipitation, maintained 1 h at 4° C., and finally centrifuged.
For determination of the bis-glycyl-L-cystine, mono-glycyl-L-cystine, bis-L-alanyl-L-cystine, mono-L-alanyl-L-cystine peptides as well as of the free amino acids glycine, alanine and cystine the precipitated plasma samples were analysed by high pressure liquid chromatography after pre-column derivatization with 5 dimethylaminonaphthaline-1-sulphonylchloride (DANSYL-Cl). The analytical conditions are summarized below:
RP-HPLC after DANSYL-Precolumn Derivatization
Column: Spherisorb ODS 11 3 μm (125×4.6 mm)
(A) 12.5 mM Na-phosphate-buffer of pH 6.6
Detection: fluorescence Em 550/Ex 325

For data set [4] the following is noted: cited from earlier work.
Where [5] appears, read: 30 s after injection, 50 μmole/100 g bw.
The mark [6] stands for this setting: first measurement (30 s), 20 μmole/100 g bw.

Take `C[C@H](N)C(=O)N[C@@H](CSSC[C@H](NC(=O)[C@H](C)N)C(=O)O)C(=O)O` [(ala-cys)2, N,N'-bis-L-alanyl-L-cystine] (I: H-Ala-Cys-OH / II: H-Ala-Cys-OH; disulfide I:2-II:2): the solubility in water result in data set [1] was “well soluble in water”. Moreover, the “stability upon heat sterilization in aqueous solution” value in data set [2] is “remain stable upon heat sterilization”. Moreover, in data set [3] (20 μmole/100 g bw), the “time after injection within which the tripeptide could be detected in all 6 test animals” value was ≤ 2 min, the “time of maximum plasma alanine concentration” value amounted to 30 s and the “time of maximum plasma cystine concentration” value was determined as 60 s. The tripeptide concentration in plasma in data set [3] (30 s after injection) is 280 µM. For the same molecule, in data set [3] (30 s after injection, 20 μmole/100 g bw), the “concentration of intermediate hydrolysis product ala-(cys)2 relative to the tripeptide” value is “about 5 fold”. In addition, in data set [3] (300 s after injection, 20 μmole/100 g bw), the “detection of tripeptide in plasma at the last sampling” value is recorded as “could not be detected”. The “maximum plasma cystine concentration versus starting concentration” value in data set [3] (after 60 s, 20 μmole/100 g bw) is 23 times. Moreover, the “plasma alanine concentration versus starting level” value in data set [3] (after 300 s, 20 μmole/100 g bw) stood at 3 times. Further, the “plasma alanine concentration versus starting level” value in data set [3] (at the beginning (30 s), 20 μmole/100 g bw) was ~7 times. Further, the level at time molar at 0.05 h in data set [3] (male, Wistar, rat, plasma, iv, 20 umole/100 g bw, heading: tripeptide concentration in plasma, 180 s after injection, detected in one sample only, 20 μmole/100 g bw) is ~20 µM. Also, the half-life in data set [3] (male, Wistar, rat, plasma, iv, 20 μmole/100 g bw, concluded from data, not calculable, read-out: plasma half-life) was < 2 min. Besides, the “clearance from the plasma after single injection” value in data set [3] (rat) is reported as “rapidly cleared from the plasma”.

Take `NCC(=O)N[C@@H](CSSC[C@H](NC(=O)CN)C(=O)O)C(=O)O` [(gly-cys)2, N,N'-bis-glycyl-L-cystine] (I: H-Gly-Cys-OH / II: H-Gly-Cys-OH; disulfide I:2-II:2): the “tripeptide plasma concentration 5 min after injection relative to the value after 30 s” value in data set [3] (50 μmole/100 g bw single injection, rat plasma) is recorded as “about 10%”. The molecule also displayed a tripeptide concentration in plasma in data set [3] (30 s after injection) of 655 µM. In addition, in data set [3] (setting [5]), the “plasma cystine concentration versus starting concentration” value worked out at 14 fold and the “plasma glycine concentration versus starting concentration” value amounted to 12 fold. Also, in data set [3] (5 min after injection, 50 μmole/100 g bw), the “plasma cystine concentration versus starting value” is on record as “about 30 times”. Moreover, in data set [3] (setting [6]), the “plasma cystine concentration versus starting point” value stood at 10 fold and the “plasma glycine concentration versus starting point” value came out at 5 fold. In data set [3] (male, Wistar, rat, plasma, iv, two compartment model, residual method, n=5, 50 μmole/100 g bw, read-out: calculated half-life (converted)), the half-life is 4 min. Also, in data set [3] (rat), the “clearance from the plasma after single injection” value is given as “rapidly cleared from the plasma”. For the same molecule, the “solubility in water (prior art statement)” value in data set [4] was “soluble”.

Turning to `C[C@H](NC(=O)[C@@H](N)CSSC[C@H](N)C(=O)N[C@@H](C)C(=O)O)C(=O)O` [L-cystinyl-bis-L-alanine] (I: H-Cys-Ala-OH / II: H-Cys-Ala-OH; disulfide I:1-II:1), the solubility in water entry in data set [1] is “well soluble in water”. Further, in data set [2], the “stability upon heat sterilization in aqueous solution” value is listed as “unstable upon heat sterilization” and the “time of heat sterilization after which other derivatives are formed” value is ≤ 8 min.

On to `CC(=O)N[C@@H](CSSC[C@H](NC(C)=O)C(=O)O)C(=O)O` [N,N'-bis-acetylcystine, reference compound], for which the “solubility in water (prior art statement)” value in data set [4] is “relatively high solubility in water”.
